# Patent US9115150B2, “Camptothecin compound containing stable 7-membered lactone ring, preparation method and use” (EAST CHINA NORMAL UNIVERSITY, priority 2012, dated 2015)
# Assays:
# HCT-116 cells = test: Anti-tumor (cytotoxic) activity assay, SRB method, HCT-116; format: cell-based; conditions: Homo sapiens, HCT-116 tumor cells, 72 h at 37° C., read-out: growth inhibition activity on HCT-116 cells, IC50
# Procedure: (§1) All the cytotoxic activity assays of the compounds were conducted on corresponding tumor cell lines. There were 6000˜10000 tumor cells per 100 μL of culture medium, and they were placed in a 96-well plate (Falcon, Calif.). The tumor cells were divided into 3 parts, and treated with drugs having gradient concentrations. The tumor cells were cultivated for 72 h at 37° C., and assayed using SRB method. The concentration that 50% of the growth of the tumor cells growth was inhibited, i.e., IC50, was calculated from dosage-activity curves.
# A549 cells = test: Anti-tumor (cytotoxic) activity assay, SRB method, A549; format: cell-based; conditions: Homo sapiens, 72 h at 37° C., read-out: growth inhibition activity on A549 cells, IC50
# Procedure: as §1
Compound,IC50 (HCT-116 cells) [nM],IC50 (A549 cells) [nM]
"CC[C@@]1(O)C(=O)OCc2c1cc1n(c2=O)Cc2cc3ccccc3nc2-1 [CPT, Camptothecin]",22.9 ± 12,33.8 ± 13.9
"CC[C@@]1(O)C(=O)OCc2c1cc1n(c2=O)Cc2cc3cc(O)ccc3nc2-1 [Compound 10-HCPT, 10-hydroxylcamptothecin, reference compound]",31.2 ± 8.2,33.6 ± 17.8
"CCc1c2c(nc3ccc(O)cc13)-c1cc3c(c(=O)n1C2)COC(=O)[C@]3(O)CC [SN-38, reference compound]",40.8 ± 5.8,30.4 ± 11.5
"CC[C@]1(O)c2cc3n(c(=O)c2COC(=O)[C@@H]1OC(C)=O)Cc1cc2ccccc2nc1-3 [Ysb-1, (20S,20aR)-20a-acetoxyhomocamptothecin]",14.2 ± 6.1,49.2 ± 34.6
"CC[C@]1(O)c2cc3n(c(=O)c2COC(=O)[C@@H]1O)Cc1cc2ccccc2nc1-3 [Ysb-2, (20S,20aR)-20a-hydroxylhomocamptothecin]",49.3 ± 15,16.8 ± 4.2
"CC[C@]1(O)c2cc3n(c(=O)c2COC(=O)[C@@H]1OC(C)=O)Cc1cc2cc(OC)ccc2nc1-3 [Ysb-3, (20S,20aR)-10-methoxy-20a-acetoxyhomocamptothecin]",4.4 ± 1,4.7 ± 1.1
"CC[C@]1(O)c2cc3n(c(=O)c2COC(=O)[C@@H]1O)Cc1cc2cc(OC)ccc2nc1-3 [Ysb-4, (20S,20aR)-10-methoxy-20a-hydroxylhomocamptothecin]",10.6 ± 6.2,4.8 ± 3.6
CC[C@]1(O)c2cc3n(c(=O)c2COC(=O)[C@@H]1OC(C)=O)Cc1cc2cc4c(cc2nc1-3)OCO4 [Ysb-5],2.1 ± 0.3,1.2 ± 0.7
"CC[C@]1(O)c2cc3n(c(=O)c2COC(=O)[C@@H]1O)Cc1cc2cc4c(cc2nc1-3)OCO4 [Ysb-6, (20S,20aR)-9,10-(1,3-dioxolane)-20a-hydroxylhomocamptothecin]",3.1 ± 0.7,3.1 ± 1.6
CC[C@]1(O)c2cc3n(c(=O)c2COC(=O)[C@@H]1OC(C)=O)Cc1cc2cc4c(cc2nc1-3)OCCO4 [Ysb-7],4.9 ± 4.1,4.6 ± 2.9
CC[C@]1(O)c2cc3n(c(=O)c2COC(=O)[C@@H]1O)Cc1cc2cc4c(cc2nc1-3)OCCO4 [Ysb-8],3.4 ± 1.2,2.9 ± 1.3
"CCc1c2c(nc3ccc(O)cc13)-c1cc3c(c(=O)n1C2)COC(=O)[C@H](OC(C)=O)[C@]3(O)CC [Ysb-9, (20S,20aR)-10-hydroxyl-7-ethyl-20a-acetoxy homocamptothecin]",133 ± 18.7,226 ± 15.8
"CCc1c2c(nc3ccc(O)cc13)-c1cc3c(c(=O)n1C2)COC(=O)[C@H](O)[C@]3(O)CC [Ysb-10, (20S,20aR)-10-hydroxyl-7-ethyl-20a-hydroxyl homocamptothecin]",366 ± 213,30.3 ± 18.4
